Key:
[1] = tested on: arachidonic acid-induced ear swelling; assay: Topical arachidonic acid-induced ear swelling model in mice (topical application); format: in vivo, mice (male ICR); details: 20 μL applied 30 min before and 15 min after arachidonic acid, measured at 90 minutes
Description: The test compounds, indomethacin (positive control), and vehicle were evaluated for anti-inflammatory activity in a topical arachidonic acid-induced ear swelling model in mice. Male ICR mice weighing 22±2 g were used and randomly divided. Arachidonic Acid (0.5 mg in 20 μl of acetone:ethanol/1:1) was applied topically to the anterior and posterior surfaces of the right ear of each mice. Test compounds and vehicle, as listed in Table 1 were similarly applied 30 minutes before and 15 minutes after arachidonic acid application. The thickness of the right ear and the left ear was measured and the difference calculated as an indication of the inflammation in the right ear. Ear swelling was measured by a Dyer model micrometer gauge at 60 and 90 minutes after arachidonic acid application as an index of inflammation. Percent inhibition was calculated according to the formula: Ic−It/Ic×100, where Ic and It refers to increase of ear thickness (mm) in control and treated mice, respectively. ANOVA and Dunnett's test were employed to ascertain significant difference between vehicle control and treated groups. Significance is set at P<0.05 level. The test compounds, indomethacin (positive control), and vehicle were evaluated for anti-inflammatory activity in a topical arachidonic acid-induced ear swelling model in mice. Male ICR mice weighing 22±2 g were used and randomly divided; the test compound and vehicle control had 10 mice, and indomethacin had 5 mice. Arachidonic Acid (0.5 mg in 20 μl of acetone:ethanol/1:1) was applied topically to the anterior and posterior surfaces of the right ear of each mouse. Test substances and vehicle, as listed in Table 4 were similarly applied 30 min before and 15 min after arachidonic acid application. The thickness of the right ear and the left ear was measured and the difference calculated as an indication of the inflammation in the right ear. Ear swelling was measured by a Dyer model micrometer gauge at 60 and 90 minutes after arachidonic acid application as an index of inflammation. Percent inhibition was calculated according to the formula: Ic−It/Ic×100, where Ic and It refers to increase of ear thickness (mm) in control and treated mice, respectively. ANOVA and Dunnett's test were employed to ascertain significant difference between vehicle control and treated groups. Significance is set at P<0.05 level.

[2] = tested on: arachidonic acid induced ear swelling; assay: Arachidonic acid induced ear swelling model in mice (oral administration); format: in vivo, mice (male ICR derived); details: for % Inhibition (ear swelling): Table 8, oral gavage, test compound 30 mg/kg 1 hour before, dexamethasone 0.3 mg/kg 3 hour before arachidonic acid, measured at 90 minutes
Description: 3-[(4-Methylphenyl)sulfonyl]propionitrile was suspended in vehicle (1% Tween 80 in water) to 3 mg/mL. The test compound, dexamethasone (positive control in vehicle), and vehicle were orally administered to mice and evaluated for anti-inflammatory activity in the topical arachidonic acid induced ear swelling model in mice.
Male ICR derived mice weighing 22±2 g were used in this experiment. 10 mice were used for each group (active compound, positive control, and vehicle). All animals were maintained in a controlled temperature (22-24° C.) and humidity (60%-70%) environment with 12-hour light/dark cycles for at least one week prior to use.
Arachidonic acid (0.5 mg in 20 μL acetone) was applied topically onto the anterior and posterior surfaces of the right ear of test animals to induce inflammation. Active compound in vehicle (10 mL/kg) and vehicle (10 mL/kg, […]) was orally administered by gavage 1 hour before arachidonic acid, whereas dexamethasone was orally administered by gavage 3 hour before arachidonic acid challenge. At 60 minutes and 90 minutes after arachidonic acid induction of ear edema, the thickness of the right ear and the left ear was measured and the difference calculated as an indication of the inflammation in the right ear.

[3] = Table 7, test compounds 375 mM, indomethacin 14 mM
[4] = Table 6, test compounds 375 mM, indomethacin 14 mM (0.5% w/v)

Structure (SMILES) | % Inhibition (ear swelling) [1, 3] [%] | % Inhibition (ear swelling) [1, 4] [%] | also measured
N#CCCS(=O)(=O)c1ccc(Cl)c(Cl)c1 [3-(3,4-dichlorophenyl)sulfonylpropionitrile] | 28 | – | melting point: 137.7 to 140.2 °C
COc1ccc(S(=O)(=O)CCC#N)cc1 [3-(4-methoxyphenyl)sulfonylpropionitrile] | 23 | – | –
N#CCCS(=O)(=O)c1ccc2ccccc2c1 [3-(naphthalene-2-sulfonyl)propionitrile] | – | 25 | –
N#CCCS(=O)(=O)c1ccccc1 [3-(phenylsulfonyl)propionitrile] | – | 36 | –
N#CCCS(=O)(=O)c1ccc(Cl)cc1 [3-[(4-chlorophenyl)sulfonyl]propionitrile] | – | 20 | –
Cc1ccc(S(=O)(=O)CCC#N)cc1 [3-[(4-methylphenyl)sulfonyl]propionitrile] | – | 44 | % Inhibition (ear swelling) [2]: 16%; Inhibition in arachidonic acid induced ear swelling (in words) ([2]; oral administration, at 90 minutes): significant inhibition
C[C@@H]1C[C@H]2[C@@H]3CCC4=CC(=O)C=C[C@]4(C)[C@@]3(F)[C@@H](O)C[C@]2(C)[C@@]1(O)C(=O)CO [Dexamethasone, reference compound] | – | – | % Inhibition (ear swelling) [2]: 36%
COc1ccc2c(c1)c(CC(=O)O)c(C)n2C(=O)c1ccc(Cl)cc1 [Indomethacin, reference compound] | 58 | 57 | –

Reference: patent US9889111B2, “Pharmaceutical composition comprising omega-(arylsulfonyl)alkylnitrile” (OLATEC THERAPEUTICS LLC, priority 2012, dated 2018)
